PMC12648460, “Substitution of CH3 by CH2F in 2‐Methylerythritol Cyclodiphosphate Triggers Potent Inhibition of IspG with Concomitant Fluoride Ion Expulsion” (Chemistry (Weinheim an Der Bergstrasse, Germany), 2025)

Columns and labels:
Type in all cases: biochemical
[1] = biological target: T1, IspG (GcpE) (Escherichia coli, UniProt P62620); assay: anaerobic NADPH consumption assay, preincubation with reduction system
T1 construct: active dimeric form

[2] = biological target: T1, IspG (GcpE); assay: anaerobic NADPH consumption assay of purified IspG with […] MEcPP
[3] = biological target: T1, IspG (GcpE); assay: anaerobic NADPH consumption assay ([…] nm), […] min preincubation with reduction system; […]-NMR of fluoride release

T1 sequence (P61949 2-176): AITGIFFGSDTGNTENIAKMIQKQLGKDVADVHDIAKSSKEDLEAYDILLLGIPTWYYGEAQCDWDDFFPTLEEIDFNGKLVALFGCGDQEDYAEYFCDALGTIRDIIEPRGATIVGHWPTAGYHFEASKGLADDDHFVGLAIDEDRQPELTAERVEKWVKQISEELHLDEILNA
T1 sequence (P28861 2-248, further chain): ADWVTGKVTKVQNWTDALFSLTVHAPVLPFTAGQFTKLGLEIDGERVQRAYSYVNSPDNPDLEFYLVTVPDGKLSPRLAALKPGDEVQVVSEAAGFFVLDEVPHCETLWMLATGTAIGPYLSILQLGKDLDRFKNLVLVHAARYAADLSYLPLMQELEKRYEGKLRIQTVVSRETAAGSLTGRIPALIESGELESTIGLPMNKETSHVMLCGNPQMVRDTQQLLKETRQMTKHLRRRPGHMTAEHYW
T1 sequence (P62620 whole entry): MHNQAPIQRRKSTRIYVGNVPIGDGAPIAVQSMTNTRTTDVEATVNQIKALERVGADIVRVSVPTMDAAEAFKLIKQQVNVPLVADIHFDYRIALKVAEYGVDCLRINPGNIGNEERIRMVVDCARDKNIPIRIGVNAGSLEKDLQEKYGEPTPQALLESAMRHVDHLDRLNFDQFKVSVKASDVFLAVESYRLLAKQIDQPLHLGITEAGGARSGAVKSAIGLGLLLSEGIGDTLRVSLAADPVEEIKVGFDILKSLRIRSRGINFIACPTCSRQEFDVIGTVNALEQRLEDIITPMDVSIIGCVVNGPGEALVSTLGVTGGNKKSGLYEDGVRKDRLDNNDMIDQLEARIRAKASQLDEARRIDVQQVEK

SMILES: C=C[C@@]1(CO)OP(=O)(O)OP(=O)(O)OC[C@H]1O [VEcPP, 2-C-vinyl-D-erythritol cyclodiphosphate]
- IC50 [1]: 19.5 ± 1.3 µM

SMILES: C[C@@]1(CO)OP(=O)(O)OP(=O)(O)OC[C@H]1O [compound 1, 2-C-methyl-D-erythritol 2,4-cyclodiphosphate]
- anaerobic NADPH consumption assay of purified IspG with 250 μM MEcPP [2]: ~ 200 nmol min−1 mg−1

SMILES: O=P1(O)OC[C@@H](O)[C@@](CO)(CF)OP(=O)(O)O1 [compound 8, monofluoromethyl-D-erythritol cyclodiphosphate]
- IC50 [3]: 10.4 ± 1 µM
